Test results from PubChem BioAssay (NCI).
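Values below derive from 48-hour exposures of cells grown in 96-well plates, with endpoints linearly interpolated between the two concentrations bracketing the appropriate inhibition level. GI50: concentration for 50% inhibition of growth. TGI denotes the concentration required for complete inhibition of growth.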

Tests used:
Assay in all cases: DTP human tumour cell line panel, 48 h
SF-539 CNS = tested on: SF-539 CNS
SNB-75 CNS = tested on: SNB-75 CNS
UO-31 renal = tested on: UO-31 renal
SW-620 colon = tested on: SW-620 colon
LOX IMVI melanoma = tested on: LOX IMVI melanoma
SF-295 CNS = tested on: SF-295 CNS
MALME-3M melanoma = tested on: MALME-3M melanoma
SK-MEL-5 melanoma = tested on: SK-MEL-5 melanoma
NCI-H522 lung = tested on: NCI-H522 lung
CAKI-1 renal = tested on: CAKI-1 renal

SMILES	TGI (SF-539 CNS)	TGI (SNB-75 CNS)	TGI (UO-31 renal)	TGI (SW-620 colon)	TGI (LOX IMVI melanoma)	TGI (SF-295 CNS)	TGI (MALME-3M melanoma)	TGI (SK-MEL-5 melanoma)	TGI (NCI-H522 lung)	TGI (CAKI-1 renal)	GI50 (SF-539 CNS)	GI50 (SNB-75 CNS)	GI50 (UO-31 renal)	GI50 (SW-620 colon)	GI50 (LOX IMVI melanoma)	GI50 (SF-295 CNS)	GI50 (MALME-3M melanoma)	GI50 (SK-MEL-5 melanoma)	GI50 (NCI-H522 lung)	GI50 (CAKI-1 renal)
CC(C)(Br)C(=O)/C=C/c1ccccc1	25.6 µM	32.6 µM	3.68 µM	6.79 µM	9.75 µM	> 53.6 µM	10.2 µM	27.5 µM	0.381 µM	17.3 µM										
Cc1ccc2c(c1)ncn2-c1ncnc2c1CC(C)c1ccccc1N2C (stereo not given)	11.6 µM	18.1 µM	7.11 µM	15.9 µM	13 µM	12.2 µM	4.6 µM	1.32 µM	5.68 µM	13.7 µM	0.0896 µM	0.0892 µM	0.317 µM	0.0435 µM	0.124 µM	0.0486 µM	0.0513 µM	0.138 µM	0.121 µM	0.127 µM
O=C(Nc1ccc2c(c1)oc(=O)c1ccccc12)C(Cl)Cl	> 100 µM	> 100 µM	> 100 µM	> 100 µM	> 100 µM	> 100 µM	> 100 µM	> 100 µM	> 100 µM	> 100 µM										
Cc1c(C)c2ccc(OC/C=C3\CCC(=O)O3)cc2oc1=O	31.7 µM	24.8 µM	22.4 µM	40 µM	29.4 µM	45 µM	26.7 µM	32.8 µM	23.7 µM	30.6 µM	16.1 µM	12.3 µM	10.6 µM	18 µM	15.2 µM	20.5 µM	11.9 µM	17.4 µM	10.2 µM	15.3 µM
Nc1nc(Nc2cccc(F)c2)nc2ccccc12	34.2 µM	50.4 µM	61.2 µM	36.6 µM	29 µM	42.7 µM	37.5 µM	28.3 µM	54 µM	44.9 µM	16.8 µM	15.8 µM	19 µM	17.1 µM	15.5 µM	17.8 µM	18.6 µM	14.5 µM	23.9 µM	16 µM
O=c1oc2ccc(Cl)cc2c(=O)n1-c1ccc(I)cc1F	2.69 µM	1.36 µM	1.2 µM	7.58 µM	1.69 µM	2.79 µM	0.813 µM	0.279 µM	1.83 µM	1.02 µM	0.231 µM	0.2 µM	0.126 µM	0.384 µM	0.248 µM	1.03 µM	0.158 µM	0.095 µM	0.111 µM	0.172 µM
C=C(C)CCC(C)N1CCC(N2CCC(C(=O)NCCc3ccccc3)CC2)CC1 (stereo not given)	23.8 µM	44.6 µM	25.3 µM	> 100 µM	35.5 µM	26.1 µM	26.9 µM	16.8 µM	54.4 µM	75.4 µM	10.5 µM	14.1 µM	11 µM	24.7 µM	15.8 µM	11.9 µM	11.8 µM	4.2 µM	14 µM	17.3 µM
